Activity calls are given as the source filed them. No cut-off for these calls is given here.
What was measured:
Histone deacetylase 4 = Histone deacetylase 4 (Homo sapiens, UniProt P56524); test: Inhibition of recombinant HDAC4 (unknown origin) using Boc-Lys(trifluoroacetyl)-AMC as substrate preincubated for 1 hr followed by substrate addition and measured after 2 hrs by fluorescence based micro plate reader analysis
[1] = biological target: Protein deacetylase HDAC6 (Homo sapiens, UniProt Q9UBN7); test: Inhibition of recombinant full length human HDAC6 using Boc-Lys(acetyl)-AMC as substrate preincubated for 1 hr followed by substrate addition and measured after 2 hrs by fluorescence based micro plate reader analysis
[2] = Ratio of AUC (0 to t) to AUC (0 to infinity) in male Sprague-Dawley rat at 20 mg/kg, po measured after 12 hrs by LC-MS/MS analysis; format: ADME, organism-based; conditions: in vivo
[3] = AUMC (0 to t) in male Sprague-Dawley rat at 20 mg/kg, po measured after 12 hrs by LC-MS/MS analysis; format: ADME, organism-based; conditions: in vivo
HCT-116 = test: cells; format: functional, cell-based; conditions: Homo sapiens, HCT-116, 72 h
Description: Antiproliferative activity against human HCT-116 cells assessed as inhibition of cell growth incubated for 72 hrs by MTT assay

B16-F10 [4] = test: Inhibition of cell migration in mouse B16-F10 cells assessed as wound area at 5 uM incubated for 24 hrs by wound healing assay (reference value: 50.36 +/- 1.68 %); format: functional; design: scale not given: the % may be the effect or the level left
B16-F10 [5] = test: Effect on acetylated H3K56 expression level in mouse B16-F10 cells at 5 to 20 uM incubated for 24 hrs by Western blot analysis; format: functional, cell-based; conditions: dose 5-20 µM
[6] = biological target: Programmed cell death 1 ligand 1 (Mus musculus) (UniProt Q9EP73); test: (§1) Induction of PD-L1 degradation in mouse B16-F10 cells assessed as decrease in PD-L1 protein level incubated for 24 hrs by Western blot analysis; format: cell-based
[7] = biological target: Programmed cell death 1 ligand 1 (Mus musculus, UniProt Q9EP73); test: as §1; format: cell-based
[8] = biological target: Programmed cell death 1 ligand 1 (Mus musculus) (UniProt Q9EP73); test: Induction of PD-L1 degradation in mouse B16-F10 cells assessed as decrease in PD-L1 protein level at 5 uM incubated for 24 hrs by DAPI staining based immunofluorescence analysis; format: cell-based
[9] = biological target: Programmed cell death 1 ligand 1 (Mus musculus) (UniProt Q9EP73); test: Induction of PD-L1 degradation in mouse B16-F10 cells assessed as decrease in PD-L1 protein level at 5 uM preincubated with bafilomycin A1 for 4 hrs followed by compound addition and measured after 24 hrs by Western blot analysis; format: cell-based
[10] = biological target: Programmed cell death 1 ligand 1 (Mus musculus) (UniProt Q9EP73); test: Induction of PD-L1 degradation in mouse B16-F10 cells assessed as decrease in PD-L1 protein level at 5 uM preincubated with MG132 for 4 hrs followed by compound addition and measured after 24 hrs by Western blot analysis; format: cell-based
B16-F10 [11] = test: Downregulation of PARP1 expression in mouse B16-F10 cells at 2 uM incubated for 24 hrs in presence of olaparib by Western blot analysis; format: functional, cell-based
4T1 [12] = test: Downregulation of PARP1 expression in mouse 4T1 cells at 2 uM incubated for 24 hrs in presence of olaparib by Western blot analysis; format: functional, cell-based
4T1 [13] = test: Induction of DNA damage in mouse 4T1 cells assessed as upregulation of nuclear gamma-H2AX expression at 5 uM by DAPI staining based immunofluorescence analysis; format: functional, cell-based
[14] = AUC (0 to 12 hrs) in male Sprague-Dawley rat at 2 mg/kg, iv measured after 12 hrs by LC-MS/MS analysis; format: ADME, organism-based; conditions: in vivo
[15] = AUC (0 to infinity) in male Sprague-Dawley rat at 2 mg/kg, iv measured after 12 hrs by LC-MS/MS analysis; format: ADME, organism-based; conditions: in vivo
[16] = VRT (0 to infinity) in male Sprague-Dawley rat at 2 mg/kg, iv measured after 12 hrs by LC-MS/MS analysis; format: ADME, organism-based; conditions: in vivo
[17] = Tmax in male Sprague-Dawley rat at 2 mg/kg, iv measured after 12 hrs by LC-MS/MS analysis; format: ADME, organism-based; conditions: in vivo
[18] = VRT (0 to t) in male Sprague-Dawley rat at 20 mg/kg, po measured after 12 hrs by LC-MS/MS analysis; format: ADME, organism-based; conditions: in vivo
[19] = Apparent volume of distribution in male Sprague-Dawley rat at 20 mg/kg, po measured after 12 hrs by LC-MS/MS analysis; format: ADME, organism-based; conditions: in vivo
[20] = Clearance in male Sprague-Dawley rat at 20 mg/kg, po measured after 12 hrs by LC-MS/MS analysis; format: ADME, organism-based; conditions: in vivo
[21] = Toxicity in male C57BL/6 mouse implanted with mouse B16-F10 cells assessed as histopathological changes in heart at 50 mg/kg, po administered once daily for 14 days by HandE staining based microscopic analysis; format: organism-based; conditions: in vivo, 336 h, time 14 day
[22] = Toxicity in male C57BL/6 mouse implanted with mouse B16-F10 cells assessed as histopathological changes in liver at 50 mg/kg, po administered once daily for 14 days by HandE staining based microscopic analysis; format: organism-based; conditions: in vivo, 336 h, time 14 day
[23] = Toxicity in male C57BL/6 mouse implanted with mouse B16-F10 cells assessed as histopathological changes in kidney at 50 mg/kg, po administered once daily for 14 days by HandE staining based microscopic analysis; format: organism-based; conditions: in vivo, 336 h, time 14 day
Mus musculus [24] = test: Immunomodulatory activity in male C57BL/6 mouse model implanted with mouse B16-F10 cells assessed as increase in CD3+ CD8+ T cells in tumor at 50 mg/kg, po administered once daily for 14 days by flow cytometric analysis (reference value: 3.2 %); format: functional; conditions: time 14 day
[25] = biological target: T1, Histone deacetylase 3 (Mus musculus) (UniProt O88895); test: In vivo inhibition of HDAC3 in male C57BL/6 mouse model implanted with mouse B16-F10 cells assessed as increase in acetylated histone H3 level in tumor at 50 mg/kg, po co-administered with NP-19 as once daily dosage via gavage for 14 days by DAPI staining based immunofluorescence analysis; format: functional, organism-based; conditions: time 14.0 day
T1 sequence (whole entry): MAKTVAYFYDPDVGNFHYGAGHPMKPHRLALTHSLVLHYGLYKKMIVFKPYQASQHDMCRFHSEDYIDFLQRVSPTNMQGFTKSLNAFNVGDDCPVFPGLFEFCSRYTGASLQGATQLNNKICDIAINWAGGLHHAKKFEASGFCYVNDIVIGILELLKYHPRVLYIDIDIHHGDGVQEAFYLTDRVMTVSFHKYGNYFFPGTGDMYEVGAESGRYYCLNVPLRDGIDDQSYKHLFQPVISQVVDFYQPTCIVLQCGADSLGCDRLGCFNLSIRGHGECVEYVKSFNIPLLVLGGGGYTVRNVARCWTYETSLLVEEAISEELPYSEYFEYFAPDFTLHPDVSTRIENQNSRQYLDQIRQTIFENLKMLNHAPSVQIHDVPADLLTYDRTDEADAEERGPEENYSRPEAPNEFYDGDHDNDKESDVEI

Mus musculus [26] = test: In vivo induction of PD-L1 degradation in male C57BL/6 mouse model implanted with mouse B16-F10 cells assessed as decrease in PD-L1 protein expression in tumor at 50 mg/kg, po co-administered with NP-19 as once daily dosage via gavage for 14 days by DAPI staining based immunofluorescence analysis; format: functional, organism-based; conditions: time 14.0 day
4T1 [27] = test: Antitumor activity against mouse 4T1 cells implanted in female BALB/c mouse model assessed as decrease in PAPR1 fluorescence intensity in tumor co-administrated orally with olaparib as once daily dose via gavage for 14 days by DAPI staining based immunofluorescence analysis; format: functional, cell-based; conditions: route po, time 14.0 day

Programmed cell death 1 ligand 1 (Mus musculus), sequence (Q9EP73 whole entry): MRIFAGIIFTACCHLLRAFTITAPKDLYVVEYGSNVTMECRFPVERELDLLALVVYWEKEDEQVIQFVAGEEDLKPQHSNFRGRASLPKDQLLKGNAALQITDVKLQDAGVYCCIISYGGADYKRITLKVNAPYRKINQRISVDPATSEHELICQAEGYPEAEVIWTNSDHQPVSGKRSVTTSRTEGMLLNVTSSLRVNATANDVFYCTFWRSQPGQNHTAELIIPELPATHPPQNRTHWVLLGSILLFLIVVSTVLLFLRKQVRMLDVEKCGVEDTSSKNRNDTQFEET
Protein deacetylase HDAC6, sequence (Q9UBN7 whole entry): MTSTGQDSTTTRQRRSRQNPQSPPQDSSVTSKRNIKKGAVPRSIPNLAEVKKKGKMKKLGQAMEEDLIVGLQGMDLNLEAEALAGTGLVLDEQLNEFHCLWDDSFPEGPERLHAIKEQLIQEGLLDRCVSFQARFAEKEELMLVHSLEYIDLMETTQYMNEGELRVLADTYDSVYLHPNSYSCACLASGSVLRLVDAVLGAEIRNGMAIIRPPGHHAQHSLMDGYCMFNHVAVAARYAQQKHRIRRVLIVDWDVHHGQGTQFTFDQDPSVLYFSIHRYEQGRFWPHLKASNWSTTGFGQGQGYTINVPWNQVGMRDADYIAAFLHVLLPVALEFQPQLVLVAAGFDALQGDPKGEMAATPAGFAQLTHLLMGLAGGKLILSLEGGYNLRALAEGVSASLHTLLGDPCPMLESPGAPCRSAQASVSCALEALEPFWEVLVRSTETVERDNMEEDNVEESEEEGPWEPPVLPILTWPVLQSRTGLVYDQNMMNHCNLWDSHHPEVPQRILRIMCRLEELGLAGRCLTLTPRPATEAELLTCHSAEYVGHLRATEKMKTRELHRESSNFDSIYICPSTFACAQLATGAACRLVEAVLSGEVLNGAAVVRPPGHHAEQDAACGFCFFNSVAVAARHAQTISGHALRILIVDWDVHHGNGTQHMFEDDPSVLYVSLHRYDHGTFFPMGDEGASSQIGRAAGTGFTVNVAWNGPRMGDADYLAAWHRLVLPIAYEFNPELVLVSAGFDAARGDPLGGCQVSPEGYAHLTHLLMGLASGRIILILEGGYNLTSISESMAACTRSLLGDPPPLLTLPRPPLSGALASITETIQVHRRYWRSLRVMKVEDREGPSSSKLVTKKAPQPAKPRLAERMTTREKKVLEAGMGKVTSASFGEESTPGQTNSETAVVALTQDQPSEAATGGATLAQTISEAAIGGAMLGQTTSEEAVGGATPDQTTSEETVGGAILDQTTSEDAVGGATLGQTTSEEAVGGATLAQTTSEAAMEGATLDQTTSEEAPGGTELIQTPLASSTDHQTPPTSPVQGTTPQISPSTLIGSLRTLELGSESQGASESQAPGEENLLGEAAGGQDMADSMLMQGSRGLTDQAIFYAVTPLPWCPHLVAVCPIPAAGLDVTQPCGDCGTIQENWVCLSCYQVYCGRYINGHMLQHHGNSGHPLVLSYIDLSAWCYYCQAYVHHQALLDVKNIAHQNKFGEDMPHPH
Programmed cell death 1 ligand 1, sequence (Q9EP73 whole entry): as the sequence (Q9EP73 whole entry) above
Histone deacetylase 4, sequence (P56524 whole entry): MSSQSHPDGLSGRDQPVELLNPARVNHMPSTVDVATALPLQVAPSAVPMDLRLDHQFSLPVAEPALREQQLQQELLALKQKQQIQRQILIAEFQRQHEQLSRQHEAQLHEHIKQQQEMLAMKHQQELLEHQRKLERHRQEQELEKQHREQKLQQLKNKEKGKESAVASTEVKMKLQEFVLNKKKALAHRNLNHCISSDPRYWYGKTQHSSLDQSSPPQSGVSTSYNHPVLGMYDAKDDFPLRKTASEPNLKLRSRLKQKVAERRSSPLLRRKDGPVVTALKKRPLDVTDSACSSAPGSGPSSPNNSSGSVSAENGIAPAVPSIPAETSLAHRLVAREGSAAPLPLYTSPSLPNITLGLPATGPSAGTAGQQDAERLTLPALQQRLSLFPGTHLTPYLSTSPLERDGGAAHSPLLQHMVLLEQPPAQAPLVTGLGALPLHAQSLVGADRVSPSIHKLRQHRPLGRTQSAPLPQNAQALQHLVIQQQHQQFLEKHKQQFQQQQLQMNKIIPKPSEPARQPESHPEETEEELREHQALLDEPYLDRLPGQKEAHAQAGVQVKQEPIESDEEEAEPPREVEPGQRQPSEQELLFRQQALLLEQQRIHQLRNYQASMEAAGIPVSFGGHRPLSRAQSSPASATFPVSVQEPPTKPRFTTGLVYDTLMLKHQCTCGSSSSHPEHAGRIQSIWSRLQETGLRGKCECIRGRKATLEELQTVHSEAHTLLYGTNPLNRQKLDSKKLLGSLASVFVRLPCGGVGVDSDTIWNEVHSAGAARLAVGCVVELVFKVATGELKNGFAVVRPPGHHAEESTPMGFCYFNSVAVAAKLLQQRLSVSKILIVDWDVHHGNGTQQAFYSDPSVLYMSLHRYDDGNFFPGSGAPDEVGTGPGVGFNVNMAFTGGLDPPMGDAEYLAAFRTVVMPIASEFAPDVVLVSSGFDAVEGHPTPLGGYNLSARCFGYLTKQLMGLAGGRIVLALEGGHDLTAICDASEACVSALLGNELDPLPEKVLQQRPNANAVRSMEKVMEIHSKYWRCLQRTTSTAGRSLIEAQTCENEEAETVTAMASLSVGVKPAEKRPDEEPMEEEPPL

IC50 (Histone deacetylase 4): > 10 µM
IC50 [1]: 8.2 µM
Ratio AUC [2]: 96.65%
AUMCt [3]: 34704.993 hr.hr.ug/L
IC50 (HCT-116): 6.82 µM
AUC(0-t) at 12 h [14]: 857 ng·h/mL
AUC(0-inf) [15]: 857 ng·h/mL
VRT [16]: 0.664 hr2
Tmax [17]: 4.98 min
VRT(t) [18]: 7.932 hr2
Vz [19]: 7.322 L/kg
CL/F [20]: 41.1 mL/min/kg
inhibition [25]: Active
SMILES: CCCNNC(=O)c1ccc(Cn2c3ccccc3c3c(-c4ccccn4)nc4ccccc4c32)cc1
Activity (B16-F10 [4]): 35.33%
Activity (B16-F10 [5]): inactive
Activity [6]: Dose-dependent-effect
DC50 [7]: 4.03 µM
Activity [8]: Active
Activity [9]: Not active; Compound Degrades Pd-L1 Through Lysosomal Pathway
Activity [10]: Active
Activity (B16-F10 [11]): Active
Activity (4T1 [12]): Active
Activity (4T1 [13]): Active
Activity [21]: Non-toxic
Activity [22]: Non-toxic
Activity [23]: Non-toxic
Activity (Mus musculus [24]): 25%
Activity (Mus musculus [26]): Active
Activity (4T1 [27]): Active
